Data on 15 compounds can be found in patent US20250084453A1, “SYSTEMS, COMPOSITIONS AND METHODS FOR IDENTIFYING E3 LIGASE SUBSTRATES BY UBIQUITIN BIOTINYLATION” (The Broad Institute, Inc., priority 2022, published 2025).

For assay [1], the target named is T1, DCAF15 E3 ubiquitin ligase (UniProt P06709+Q14498+Q66K64).
T1 construct: expressed in transfected cells
As to the kind of experiment: Ubiquitin biotinylation MS profiling of molecular glue in HEK293T DCAF15-BirA cells. The assay is classed as cell-based, human. The conditions noted are these: A3-HA-Ub, 10 μM, 1 hour, FIG. 11. The protocol: The protocol used in this experiment is the same as that described in Example 6 above, except that the system was evaluated in a HEK293T cell line lentivirally engineered to express DCAF15-BirA and transiently expressing A3-HA-Ub. While cultured in biotin-free medium, the cells were pre-treated with carfilzomib (carf; 0.4 μM) for 1 hour, and then were either treated or untreated with E7820 (10 μM) for another hour. […] Enrichment of biotinylated species by streptavidin-coated beads, protein digestion, and protein identification and quantification by mass spectrometry were performed exactly as described in Examples 3 and 4. Triplicate samples allowed for statistical analysis of differentially enriched proteins, represented by log 2-fold-change (FC) between the E7820-treated group and the DMSO-treated group on the x-axis, and significance (p-value estimated by limma) on the y-axis in the figures. […] Consistent with the expected action of the E7820 glue in the system, the induced ubiquitinated protein RBM39/CAPERα was detected as the target of the E7820 sulfonamide, based on binding activity or protein degradation.

Assay [2] concerns the target T2, V5-IKZF1 (Homo sapiens, UniProt Q13422+Q96SW2).
T2 construct: expressed in transfected cells; host or cells: 293T CRBN-/- cells stably expressing CRBN-BirA; pRK5 vector, transient
As to the kind of experiment: Streptavidin pulldown and Western blot of biotinylated ubiquitinated V5-IKZF1 in 293T CRBN-/- CRBN-BirA cells. The assay is classed as cell-based. For orientation: In western blotting, separated proteins are transferred to a membrane and probed.
Description: One day (approximately 24 hours) after the transfection, DMSO (untreated) or carfilzomib (0.4 μM), (“carf”), was added to the cells for 1 hour.
A portion of the lysates (referred to as inputs) were saved for Western blotting analyses. […] The eluates were analyzed by SDS-PAGE gel electrophoresis and Western blotting analyses.
The preparation of cellular lysate was as described above for Cell Lysis, except that the RIPA buffer was supplemented with COMPLETE™ EDTA-free protease inhibitor cocktail (Roche; 04693159001; 1 tablet per 10 ml of buffer), benzonase (Millipore; E1014; 1 μl per 10 ml of buffer), 1.5 mM MgCl2, 1 mM EGTA, and 10 mM NEM (N-ethylmaleimide). For each sample, 1 ml of 3 mg/ml lysate was rotated overnight at 4° C. with 50 μl of resuspended streptavidin Sepharose beads (CYTIVA™; 17511301), which were pre-washed with RIPA lysis buffer 3 times. For all steps that required pelleting of beads, centrifugation was performed at 400×g for 1 minute. On the next day, streptavidin beads were pelleted, and the supernatant (a.k.a. flow-through) was either saved for analysis by Western blotting or was discarded. Streptavidin beads were then washed two times with 1 ml of 2% SDS wash buffer (2% SDS, 25 mM Tris-HCl, pH 7.5), and three times with 0.5-1 ml of 2M urea wash buffer (2M urea, 50 mM Tris-HCl, pH 8). Between each wash, the beads were rotated at room temperature for at least 5 minutes. During the last wash, the beads and the washing buffer were transferred to a new microfuge tube. […] For mass spectrometry-based analysis, the procedures described in On-bead Digestion below were used.
On the next day, the cells were transfected using pRK5-Avi-HA-ubiquitin or pRK5-A3-HA-ubiquitin in serum-free DMEM.

Assay [3] addresses T3, VHL E3 ligase (UniProt P06709+P40337).
T3 construct: expressed in transfected cells
Put plainly: Ubiquitin biotinylation MS with VHL inhibitor in A375 cells expressing VHL-BirA. It counts as cell-based, human. The conditions noted are these: MLN4924 pre-treatment and washout, VH298 30 minutes, FIG. 18. The protocol: Experiments were conducted using the methods and systems described herein in conjunction with an inhibitor of an E3 ligase utilized in the experiment. […] The experiments were performed in A375 cells that transiently expressed A3-HA-Ub and VHL-BirA. While cultured in biotin-free medium, the cells were pre-treated with MLN4924 (1 μM) for 2 hours. Thereafter, MLN4924 was washed out of the cell culture with one PBS wash and was replaced with biotin-free medium.
Next, the cells were lysed and kept on ice to terminate the reaction. Enrichment of biotinylated species by streptavidin-coated beads, protein digestion, and protein identification and quantification by mass spectrometry were performed exactly as described in Examples 3 and 4. The samples were analyzed in triplicate to allow for statistical analysis of differentially enriched proteins, represented by log 2-fold-change between the VH298-treated E3 ligase group and the wild-type E3 ligase group on the y-axis, and significance (p-value estimated by limma) on the x-axis in the figures. […] A decrease in biotinylation owing to the inhibitor treatment was observed. Consistent with the expected actions of VHL, HIF1A was identified as a substrate.

Assay [4] addresses T3, VHL E3 ligase. As to the kind of experiment: Ubiquitin biotinylation MS profiling of BET/PTK2 degraders in VHL-BirA cells. The assay is classed as cell-based, human. The conditions noted are these: A3-HA-Ub, 1 μM, 1 hour, FIG. 10. The protocol:
(§1) Enrichment of biotinylated species by streptavidin-coated beads, protein digestion, and protein identification and quantification by mass spectrometry were performed exactly as described in Examples 3 and 4. Triplicate samples allowed for statistical analysis of differentially enriched proteins, represented by log 2-fold-change (FC) between the PROTAC®-treated group and the DMSO-treated group on the x-axis, and significance (p-value estimated by limma) on the y-axis in the figures.

The target in assay [5] is T4, BirA (Escherichia coli, UniProt P06709). The conditions noted are these: cited from earlier work.
T4 sequence (P06709 whole entry): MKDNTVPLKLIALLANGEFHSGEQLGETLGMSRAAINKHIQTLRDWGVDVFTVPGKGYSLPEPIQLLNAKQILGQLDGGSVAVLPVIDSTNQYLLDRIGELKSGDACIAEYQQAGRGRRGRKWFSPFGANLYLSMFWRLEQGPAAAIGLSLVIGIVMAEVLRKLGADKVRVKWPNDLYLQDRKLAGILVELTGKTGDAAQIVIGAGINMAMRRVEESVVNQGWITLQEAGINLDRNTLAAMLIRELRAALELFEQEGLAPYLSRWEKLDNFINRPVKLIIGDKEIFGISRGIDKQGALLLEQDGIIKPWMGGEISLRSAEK
Assay [6] has as its target T4, BirA.
The target in assay [7] is T3, VHL E3 ligase. Put plainly: Ubiquitin biotinylation MS profiling of HDAC degrader in 293T VHL-BirA cells. The conditions noted are these: A3-HA-Ub, 1 μM, 45 minutes, FIG. 14B. The assay is classed as cell-based, human. The procedure: as §1, with “The experiments involving CRBN E3 ligase were performed in HEK293T^CRBN−/− cells lentivirally engineered to express CRBN-BirA and transiently expressing A3-HA-Ub. The HDAC degrader XY-07-097 was used in the experiments using the CRBN E3 ligase. The experiments involving VHL E3 ligase were performed in HEK293T cells lentivirally engineered to express VHL-BirA and transiently expressing A3-HA-Ub. The HDAC degrader XY-07-187 was used in the experiments using the VHL E3 ligase. […] Enrichment” for “Enrichment”, “Example” for “Examples”
(§2) Desalted peptides were dried in a vacuum-centrifuged and reconstituted in 0.1% formic acid for LC-MS analysis. Data were collected using a TimsTOF Pro2 (Bruker Daltonics, Bremen, Germany) coupled to a nanoElute LC pump (Bruker Daltonics, Bremen, Germany) via a CaptiveSpray nano-electrospray source. […]

Assay [8] has as its system CRBN E3 ligase. Put plainly: Ubiquitin biotinylation MS profiling of HDAC degrader in 293T CRBN-/- CRBN-BirA cells. It counts as cell-based, human. The conditions noted are these: CRBN-BirA, A3-HA-Ub; 1 μM, 45 minutes; FIG. 14A. The protocol:
as §1, with “The experiments involving CRBN E3 ligase were performed in HEK293T^CRBN−/− cells lentivirally engineered to express CRBN-BirA and transiently expressing A3-HA-Ub. The HDAC degrader XY-07-097 was used in the experiments using the CRBN E3 ligase. The experiments involving VHL E3 ligase were performed in HEK293T cells lentivirally engineered to express VHL-BirA and transiently expressing A3-HA-Ub. The HDAC degrader XY-07-187 was used in the experiments using the VHL E3 ligase. […] Enrichment” for “Enrichment”, “Example” for “Examples”
as §2

The test system of assay [9] is GSPT1. Put plainly: GSPT1 degradation by Western blot in HEK293T cells and CRBN-/- derivatives. It counts as cell-based, human. The conditions noted are these: carfilzomib 0.4 μM 1 hour before CC-885 1 μM. The procedure: However, instead of assessing transiently-expressed V5-tagged IKZF1, an endogenous neo-substrate of CRBN, namely, GSPT1, was assessed. […] Following incubation with the components and added agents, the cells were lysed, and streptavidin-coated beads were used to capture from the cell lysate biotinylated, ubiquitinated proteins, e.g., the endogenous GSPT1 substrate. The biotinylated proteins eluted from the beads were subjected to Western blot analyses.

Assay [10] concerns CRBN E3 ligase. Put plainly: Ubiquitin biotinylation MS profiling of BET/PTK2 degraders in CRBN-BirA cells. The conditions noted are these: A3-HA-Ub, 1 μM, 1 hour, FIG. 10. The assay is classed as cell-based, human. The protocol:
as §1

Assay [11] concerns BET bromodomains. The conditions noted are these: degrader of BET bromodomains; cited from earlier work.
The target in assay [12] is PTK2 (Homo sapiens, UniProt Q05397). The conditions noted are these: cited from earlier work.
Assay [13] deals with CRBN E3 ligase. As to the kind of experiment: Ubiquitin biotinylation MS profiling of multikinase PROTACs in HEK293T CRBN-/- CRBN-BirA cells. The conditions noted are these: A3-HA-Ub; PROTAC 1 μM, 45 minutes after carfilzomib; FIGS. 13A-13D. It counts as cell-based, human. From the text: In this example, PROTAC® (proteolysis-targeting chimera) molecules that target kinases were created by linking certain kinase degraders with IMiDs analogs. (FIG. 12). PROTAC®s recruit a target protein to be in proximity to an E3 ubiquitin ligase to trigger protein degradation. The ubiquitinated targets of four CRBN-recruiting multi-kinase PROTAC®s were generated to contain the following multikinase degraders: SK-3-91, DB0646, SB1-G-187 and WH-10417-099. These four degraders can collectively induce degradation of a large number of distinct kinases (>125 distinct kinases). FIGS. 13A-13D show the results of a mass spectrometry experiment in which protein substrates susceptible to induced ubiquitination by the abovementioned four multikinase degraders were identified, respectively. These experiments were performed in HEK293T^CRBN−/− cells lentivirally engineered to express CRBN-BirA and transiently expressing A3-HA-Ub. While cultured in biotin-free medium, the cells were pre-treated with carfilzomib (carf; 0.4 μM) for 1 hour, and then were either treated or untreated with the kinase-targeting PROTAC®s (1 μM) for another 45 minutes. […] Enrichment of biotinylated species by streptavidin-coated beads, protein digestion, and protein identification and quantification by mass spectrometry were performed exactly as described in Example 3 and 4. Triplicate samples allowed for statistical analysis of differentially enriched proteins, represented by log 2-fold-change (FC) between the PROTAC®-treated group and the DMSO-treated group on the x-axis, and significance (p-value estimated by limma) on the y-axis in the figures. FIGS. 13A-13D present the induced ubiquitinated substrates for SK-3-91, DB0646, SB1-G-187 and WH-10417-099, respectively, shown and labeled in the upper right quadrant of the plot.

T2 sequence (Q13422 whole entry): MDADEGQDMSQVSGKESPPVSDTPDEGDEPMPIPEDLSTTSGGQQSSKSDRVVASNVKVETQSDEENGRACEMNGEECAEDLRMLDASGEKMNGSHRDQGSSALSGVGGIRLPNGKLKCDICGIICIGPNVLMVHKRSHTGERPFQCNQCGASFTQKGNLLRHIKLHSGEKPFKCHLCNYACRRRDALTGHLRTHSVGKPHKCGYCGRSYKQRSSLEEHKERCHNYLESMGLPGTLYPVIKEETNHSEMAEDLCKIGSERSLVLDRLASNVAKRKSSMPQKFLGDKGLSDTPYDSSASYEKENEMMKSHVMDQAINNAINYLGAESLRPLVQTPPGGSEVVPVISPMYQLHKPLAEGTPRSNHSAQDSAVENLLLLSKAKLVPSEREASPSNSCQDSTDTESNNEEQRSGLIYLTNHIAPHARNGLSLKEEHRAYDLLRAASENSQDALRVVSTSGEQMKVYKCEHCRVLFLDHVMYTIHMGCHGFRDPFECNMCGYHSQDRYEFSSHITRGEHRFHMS
T2 sequence (Q96SW2 whole entry): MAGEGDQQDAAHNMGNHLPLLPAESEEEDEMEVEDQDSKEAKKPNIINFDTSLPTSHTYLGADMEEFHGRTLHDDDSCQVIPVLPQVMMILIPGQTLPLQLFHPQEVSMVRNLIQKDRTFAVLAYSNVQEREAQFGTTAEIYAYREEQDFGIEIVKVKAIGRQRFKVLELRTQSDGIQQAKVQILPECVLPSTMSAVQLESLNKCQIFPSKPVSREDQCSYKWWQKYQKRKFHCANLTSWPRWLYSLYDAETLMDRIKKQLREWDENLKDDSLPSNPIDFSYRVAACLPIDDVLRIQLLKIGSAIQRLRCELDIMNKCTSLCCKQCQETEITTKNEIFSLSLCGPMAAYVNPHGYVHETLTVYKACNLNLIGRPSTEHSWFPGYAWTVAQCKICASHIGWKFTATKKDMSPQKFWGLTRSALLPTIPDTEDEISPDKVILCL
T3 sequence (P40337+P06709 fused): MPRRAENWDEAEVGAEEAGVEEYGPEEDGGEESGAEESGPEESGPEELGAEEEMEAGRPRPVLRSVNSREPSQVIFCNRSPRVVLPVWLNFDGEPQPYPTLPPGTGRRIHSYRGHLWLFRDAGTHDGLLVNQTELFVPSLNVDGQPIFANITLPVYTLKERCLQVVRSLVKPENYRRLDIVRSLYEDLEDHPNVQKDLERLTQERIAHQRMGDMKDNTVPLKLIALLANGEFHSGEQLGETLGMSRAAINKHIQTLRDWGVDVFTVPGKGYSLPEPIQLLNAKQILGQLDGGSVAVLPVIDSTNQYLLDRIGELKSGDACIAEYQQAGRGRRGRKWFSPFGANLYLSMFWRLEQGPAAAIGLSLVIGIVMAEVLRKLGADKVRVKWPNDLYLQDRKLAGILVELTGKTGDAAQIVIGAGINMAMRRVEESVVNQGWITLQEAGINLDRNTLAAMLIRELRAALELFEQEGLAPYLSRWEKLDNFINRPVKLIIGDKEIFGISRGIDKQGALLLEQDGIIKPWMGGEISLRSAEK
T3 sequence (Q15369 whole entry, further chain): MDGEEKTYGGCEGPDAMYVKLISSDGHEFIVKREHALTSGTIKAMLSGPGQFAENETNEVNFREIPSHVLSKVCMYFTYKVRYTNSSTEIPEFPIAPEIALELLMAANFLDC
T3 sequence (Q15370 whole entry, further chain): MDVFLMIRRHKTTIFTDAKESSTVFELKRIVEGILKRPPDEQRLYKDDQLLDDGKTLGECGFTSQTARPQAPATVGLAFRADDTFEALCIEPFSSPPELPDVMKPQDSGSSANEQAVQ
T1 sequence (Q14498 whole entry): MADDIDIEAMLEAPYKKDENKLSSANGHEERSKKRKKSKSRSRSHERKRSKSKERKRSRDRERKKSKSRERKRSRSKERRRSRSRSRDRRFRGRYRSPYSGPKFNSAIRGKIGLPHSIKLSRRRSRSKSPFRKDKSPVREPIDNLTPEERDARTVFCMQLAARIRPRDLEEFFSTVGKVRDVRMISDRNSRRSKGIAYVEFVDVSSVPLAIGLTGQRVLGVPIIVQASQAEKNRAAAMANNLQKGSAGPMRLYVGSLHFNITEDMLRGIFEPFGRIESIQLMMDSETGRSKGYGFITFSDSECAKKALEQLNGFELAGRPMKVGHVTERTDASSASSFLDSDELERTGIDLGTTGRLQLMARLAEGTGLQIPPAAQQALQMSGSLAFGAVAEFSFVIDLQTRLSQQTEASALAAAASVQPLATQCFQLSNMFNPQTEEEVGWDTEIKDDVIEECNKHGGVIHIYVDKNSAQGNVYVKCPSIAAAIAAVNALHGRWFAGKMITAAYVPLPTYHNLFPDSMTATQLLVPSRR
T1 sequence (Q16531 whole entry, further chain): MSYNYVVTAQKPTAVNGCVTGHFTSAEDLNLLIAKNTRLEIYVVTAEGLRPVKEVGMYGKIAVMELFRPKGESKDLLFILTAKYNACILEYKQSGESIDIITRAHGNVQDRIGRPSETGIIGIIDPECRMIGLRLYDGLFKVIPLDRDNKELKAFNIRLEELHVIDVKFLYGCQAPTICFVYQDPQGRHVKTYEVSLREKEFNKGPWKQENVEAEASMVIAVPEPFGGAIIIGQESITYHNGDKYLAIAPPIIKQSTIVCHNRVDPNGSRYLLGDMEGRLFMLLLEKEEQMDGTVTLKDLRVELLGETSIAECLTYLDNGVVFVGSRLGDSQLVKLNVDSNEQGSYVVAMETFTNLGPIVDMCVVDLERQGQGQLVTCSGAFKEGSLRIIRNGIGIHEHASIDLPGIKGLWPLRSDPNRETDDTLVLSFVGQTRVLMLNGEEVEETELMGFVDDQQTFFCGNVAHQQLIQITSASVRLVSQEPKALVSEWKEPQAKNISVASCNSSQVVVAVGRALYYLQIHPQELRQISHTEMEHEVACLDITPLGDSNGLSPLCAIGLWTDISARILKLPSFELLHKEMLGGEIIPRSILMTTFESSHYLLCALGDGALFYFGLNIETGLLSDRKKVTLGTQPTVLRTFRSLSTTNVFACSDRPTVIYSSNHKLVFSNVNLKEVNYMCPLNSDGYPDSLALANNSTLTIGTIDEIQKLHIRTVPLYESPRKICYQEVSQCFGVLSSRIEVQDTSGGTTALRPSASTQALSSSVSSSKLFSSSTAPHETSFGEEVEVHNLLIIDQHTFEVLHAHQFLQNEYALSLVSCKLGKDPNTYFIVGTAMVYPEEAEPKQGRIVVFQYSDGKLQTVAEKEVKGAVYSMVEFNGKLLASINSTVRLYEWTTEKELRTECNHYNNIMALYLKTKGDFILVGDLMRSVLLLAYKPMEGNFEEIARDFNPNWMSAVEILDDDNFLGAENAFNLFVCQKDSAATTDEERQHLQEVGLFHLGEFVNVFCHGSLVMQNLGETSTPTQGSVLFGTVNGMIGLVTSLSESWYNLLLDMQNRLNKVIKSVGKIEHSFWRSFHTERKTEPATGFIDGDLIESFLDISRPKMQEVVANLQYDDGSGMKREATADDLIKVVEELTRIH
T1 sequence (Q66K64+P06709 fused): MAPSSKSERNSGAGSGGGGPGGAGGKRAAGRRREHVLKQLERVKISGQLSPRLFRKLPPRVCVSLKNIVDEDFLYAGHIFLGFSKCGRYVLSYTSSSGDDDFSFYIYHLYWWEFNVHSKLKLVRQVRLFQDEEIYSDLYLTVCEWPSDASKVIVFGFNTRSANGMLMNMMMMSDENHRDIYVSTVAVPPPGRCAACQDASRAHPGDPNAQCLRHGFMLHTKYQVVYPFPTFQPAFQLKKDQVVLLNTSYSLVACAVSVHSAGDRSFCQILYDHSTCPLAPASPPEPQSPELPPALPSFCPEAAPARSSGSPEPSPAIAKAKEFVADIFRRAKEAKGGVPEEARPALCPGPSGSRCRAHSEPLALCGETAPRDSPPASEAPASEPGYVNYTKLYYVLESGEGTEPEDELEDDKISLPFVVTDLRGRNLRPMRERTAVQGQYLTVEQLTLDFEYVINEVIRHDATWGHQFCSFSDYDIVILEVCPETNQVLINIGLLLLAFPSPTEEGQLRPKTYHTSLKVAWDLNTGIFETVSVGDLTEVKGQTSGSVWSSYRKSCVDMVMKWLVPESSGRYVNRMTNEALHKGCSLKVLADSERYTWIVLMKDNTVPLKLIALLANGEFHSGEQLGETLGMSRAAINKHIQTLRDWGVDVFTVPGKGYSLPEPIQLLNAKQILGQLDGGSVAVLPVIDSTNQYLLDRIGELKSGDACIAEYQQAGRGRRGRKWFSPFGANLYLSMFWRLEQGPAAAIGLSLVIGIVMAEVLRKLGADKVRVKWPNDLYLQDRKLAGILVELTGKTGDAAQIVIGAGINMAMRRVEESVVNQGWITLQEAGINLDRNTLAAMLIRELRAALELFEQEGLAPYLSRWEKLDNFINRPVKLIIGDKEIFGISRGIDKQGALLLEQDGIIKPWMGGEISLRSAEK

As to `Cc1ccc(NS(=O)(=O)c2cccc(C#N)c2)c2[nH]cc(C#N)c12` [E7820], the “Induced ubiquitinated substrate versus DMSO” value in assay [1] is “RBM39/CAPERα”.
With `Nc1cccc2c1C(=O)N(C1CCC(=O)NC1=O)C2=O` (centres unmarked) [pomalidomide], in assay [2], the “Induced ubiquitination of IKZF1 by E3 ligase CRBN” value is “showed pomalidomide-induced ubiquitination of IKZF1”; the “Mono- and poly-ubiquitinated V5-IKZF1 captured by streptavidin beads” value is listed as “increased amount”; the “Ubiquitinated V5-IKZF1 captured by streptavidin beads compared with DMSO” value was “approximately 3.9 fold”.
Consider `Cc1ncsc1-c1ccc(CNC(=O)[C@@H]2C[C@@H](O)CN2C(=O)[C@@H](NC(=O)C2(C#N)CC2)C(C)(C)C)cc1` [VH298], for which the “VHL substrate revealed by decrease in biotinylation owing to the inhibitor treatment” value in assay [3] is “HIF1A”.
Turning to `COc1cc(C(=O)NCCOCCOCCOCC(=O)N[C@H](C(=O)N2C[C@H](O)C[C@H]2C(=O)NCc2ccc(-c3scnc3C)cc2)C(C)(C)C)ccc1Nc1ncc(C(F)(F)F)c(Oc2cccc3c2C(=O)CC3)n1` [BI-0319], the “Induced ubiquitinated substrates versus DMSO” value in [4] was “PTK2”.
For the compound GLNDIFEAQKIE [A3-Tag], the Km (commonly the substrate concentration at which the rate is half of its maximum) in assay [5] was 345 µM. Further, in assay [6], the “Increase in Km relative to Avi-Tag” value is given as about 14 fold.
As to `Cc1ncsc1-c1ccc(CNC(=O)[C@@H]2C[C@@H](O)CN2C(=O)C(NC(=O)C2(F)CC2)C(C)(C)C)c(OCCCCCN(CCc2c[nH]c3ccccc23)Cc2ccc(/C=C/C(=O)NO)cc2)c1` (some centres unmarked) [XY-07-187], the “Induced ubiquitinated HDAC substrates versus DMSO” value in [7] is “HDAC1, HDAC2, HDAC6, and HDAC8”.
As for `O=C(/C=C/c1ccc(CN(CCCCCNc2cccc3c2C(=O)N(C2CCC(=O)NC2=O)C3=O)CCc2c[nH]c3ccccc23)cc1)NO` (centres unmarked) [XY-07-097], in assay [8], the “Induced ubiquitinated HDAC substrates versus DMSO” value is “HDAC2, HDAC6, and HDAC8”.
Turning to `CC(C)C[C@H](NC(=O)[C@H](CCc1ccccc1)NC(=O)CN1CCOCC1)C(=O)N[C@@H](Cc1ccccc1)C(=O)N[C@@H](CC(C)C)C(=O)[C@@]1(C)CO1` [carfilzomib], the “Rescue of CC-885-induced GSPT1 degradation” value in assay [9] is listed as “partially rescued”.
`Cc1sc2c(c1C)C(c1ccc(Cl)cc1)=N[C@@H](CC(=O)NCCCCCCCCNC(=O)COc1cccc3c1C(=O)N(C1CCC(=O)NC1=O)C3=O)c1nnc(C)n1-2` (some centres unmarked) [dBET6]: the “Induced ubiquitinated substrates versus DMSO” value in [10] is on record as “BRD2, BRD3, BRD4”. Further, in assay [11], the IC50 (as a rule, the midpoint of a concentration-inhibition curve) was about 10 nM.
For `COc1cc(C(=O)NCCOCCOCCOCCC(=O)Nc2cccc3c2C(=O)N(C2CCC(=O)NC2=O)C3=O)ccc1Nc1ncc(C(F)(F)F)c(Oc2cccc3c2C(=O)CC3)n1` (centres unmarked) [BI-3663], the “Induced ubiquitinated substrates versus DMSO” value in [10] was “PTK2”. Also, in assay [12], the half-inhibitory concentration (IC50) was 18 nM.
On to GLNDIFEAQKIEWHE [Avi-Tag], for which, in assay [5], the Km is 25 µM.
With `Cc1ccc(NC(=O)c2cccc(C(F)(F)F)c2)cc1N1Cc2cnc(Nc3ccc(N4CCN(Cc5cn(CCCCCOc6cccc7c6C(=O)N(C6CCC(=O)NC6=O)C7=O)nn5)CC4)nc3)nc2N(C)C1=O` (centres unmarked) [DB0646], the “Induced ubiquitinated proteins versus DMSO” value in assay [13] is reported as “the majority of the induced ubiquitinated proteins detected were kinase targets”.
Still for that read-out and setting: with `CC(C)S(=O)(=O)c1ccccc1Nc1nc(Nc2ccc(N3CCN(CCOCCNC(=O)CNc4cccc5c4C(=O)N(C4CCC(=O)NC4=O)C5=O)CC3)cc2)ncc1Cl` (centres unmarked) [SK-3-91] the entry was “the majority of the induced ubiquitinated proteins detected were kinase targets”; with `Cc1ccc(C(=O)Nc2ccc(CN3CCN(CCCOCCOCCOCCNC(=O)COc4cccc5c4C(=O)N(C4CCC(=O)NC4=O)C5=O)CC3)c(C(F)(F)F)c2)cc1C#Cc1cnc2cccnn12` (centres unmarked) [SB1-G-187], “the majority of the induced ubiquitinated proteins detected were kinase targets”.
As to `Cc1ncsc1-c1ccc([C@H](C)NC(=O)[C@@H]2C[C@@H](O)CN2C(=O)[C@@H](NC(=O)COCCCOCCNC(=O)C[C@@H]2N=C(c3ccc(Cl)cc3)c3c(sc(C)c3C)-n3c(C)nnc32)C(C)(C)C)cc1` [ARV-771], the “Induced ubiquitinated substrates versus DMSO” value in assay [4] is listed as “BRD2, BRD3, BRD4”.
